How the values were obtained:
[1] = tested on: lipogenesis in sebaceous glands; test: lipogenesis inhibition in hamster ear tissue (C14 uptake); format: cell-based; details: 0.01% test material solution, 6 hours, average of 4 hamsters
Method: The degree of lipogenesis in sebaceous glands was evaluated by evaluating the inhibition of lipogenesis through the quantification of carbon uptake required for lipogenesis.
Specifically, the ear tissue of hamsters, having abundant sebaceous glands, was biopsied, and the degree of lipogenesis was evaluated by comparatively quantifying the control group and the test materials using a radioactivity meter in C14-labeled media for 6 hours. In the test material groups, the right ear tissue of hamsters was used and 0.01% test material solutions were added to the media, and in the control group, the left ear tissue of hamsters was used and 0.01% saline was added to the media.
Meanwhile, the inhibition (%) in Table 17 was calculated according to the following equation 4 and was expressed as the average of 4 hamsters. […] [Equation 4]

[2] = tested on: Human normal fibroblasts; test: inhibition of oxidative DNA damage, single cell gel electrophoresis (comet assay); format: cell-based; details: H2O2 10^-3 M; test material 10 ppm
Method: Human normal fibroblasts were cultured for 24 hr and treated with varying concentrations of each of the ginseng berry extract of Example 1 and vitamin E. After 12 hr, the cells were treated with the positive control H2O2 (final concentration: 10^−3M), and then stained by electrophoresis. […] Herein, the image analyzer KOMET 3.1 (Kinetic Imaging, England) was used to analyze the tail length (μm) resulting from the digestion of DNA in each of 25 cells, and the analysis results are shown in Table 3 below.

[3] = tested on: human skin; test: whitening effect on UVB-darkened human skin (colorimeter); format: in vivo; details: UVB-darkened upper arm, 10 weeks of application
[4] = tested on: C57BL/6 mouse melanocytes (Mel-Ab cells); test: melanin production inhibition in mouse melanocytes; format: cell-based; details: positive control, concentration not given
[5] = tested on: 5-alpha-reductase; test: 5-alpha-reductase activity, testosterone to dihydrotestosterone; format: biochemical, rat; details: 100 μg extract per reaction
Method: Adult SD (Spraque-Dawley) male rats (7-8-week old) were sacrificed with diethyl ether, the abdominal prostate was extracted, and the connective tissue was removed. The prostate tissue was finely cut in buffer (0.32 M sucrose, 0.1 mM dithiothreitol and 20 mM sodium acetate), and was then suspended with a stirrer. The suspension was centrifuged, and the supernatant was collected. 5-alpha-reductase was partially purified from the supernatant in order to the activity thereof.
A portion of the above-collected supernatant was taken and placed in buffer containing 0.2 M monobasic acid and 0.2 M dibasic acid. Then, the solution was allowed to react with a ^3H-bound substrate (testosterone), and the production of the product dihydrotestosterone was measured.
The reaction solution contained 1 mM dithiothreitol, 40 mM sodium phosphate (pH 6.5), 50 μM NADPH, [1,2,6,7-^3H] testosterone/testosterone ([…]), 0.8 mg enzyme suspension and 565 μl protein.
The ginseng berry extract of Example 1 was dissolved in 10% ethanol and added in an amount of 100 μg extract/10 μl 10% ethanol per reaction. […]
The plastic sheet was dried in air, and then a VAS system was used to measure of isotopes. Specifically, the dried plastic sheet together with an X-ray film was placed in a VAS cassette, and after 1 week, the amounts of the testosterone and dihydrotestosterone isotopes remaining on the film were measured.

[6] = tested on: ceramide; test: epidermal lipid (total ceramide) in human skin (TLC); format: in vivo; details: 5 wt % test material, twice every day, non-treated group = 100%
Method: In order to evaluate the effect of the ginseng berry extract of Example 1 on an increase in lipid synthesis in human skin, 0.5 wt % of Carbopol ETD 2020, 0.45% of TEA, 5 wt % of the test material and the balance of deionized water were used. On 12 adult men and women, a region corresponding to the diameter of a polypropylene conical tube was marked on the arm, and then was applied with 20 μl of each of control groups and the ginseng berry extract of Example 1 twice every day. The subjects were divided into two groups, and the production of lipid in the applied region was analyzed in the following manner by extracting lipid at day 3 and day 11. Specifically, the arm was washed with service water, and then subjected to tape stripping once with Scotch 810 Magic tape. Then, 1 ml of a mixture of cyclohexane/ethanol (4:1) was added to the tape using a cut 50-ml polypropylene conical tube as a reservoir and stirred for about 1 minute, and then the solution was transferred into a fresh tube. Then, the tape was treated with 1 ml of a mixture of cyclohexane/ethanol (1:1) in the same manner as described above, and the solution was collected in the tube. […]
After the TLC plate was developed, the size of each band was measured at a wavelength of 570 nm using TLC scanner-II (CAMAG; densitometer).

**Q.** With `CC1=C(/C=C/C(C)=C/C=C/C(C)=C/C(=O)O)C(C)(C)CCC1` [retinoic acid] as the compound, how does the Inhibition of lipogenesis [1] read?
**A.** 52%

**Q.** Which “Inhibition of oxidative damage to DNA” value [2] does the source give for vitamin E here?
**A.** 38.9%

**Q.** What about the Tail length [2] of the same compound?
**A.** 70.6 μm

**Q.** With `Oc1ccc(O)cc1` [Hydroquinone, hydroquinone] as the compound, how does the “Skin-color brightness (ΔL*)” value [3] read?
**A.** 1.90 ± 0.13

**Q.** What about the Melanin production inhibition [4] of the same compound?
**A.** 41.1%

**Q.** Which results are given for `Cc1cc2nc3c(=O)[nH]c(=O)nc-3n(C[C@H](O)[C@H](O)[C@H](O)CO)c2cc1C` [Positive control group, riboflavin]?
**A.** Conversion: radioactivity in the DHT region/total radioactivity ([5]; 37° C., 30 minutes): 28.7%; Inhibition of 5-alpha-reductase ([5]; vs conversion of control group): 32.4%

**Q.** For `OCC(O)CO` [Glycerin, glycerin], which “production of ceramide, After 3 days of treatment” value [6] is on record?
**A.** 102%

**Q.** What about the “production of ceramide, After 11 days of treatment” value [6] of the same compound?
**A.** 94%

Reference: patent US8877264B2, “Composition of skin external application containing ginseng berry extracts” (Amorepacific Corporation, priority 2007, dated 2014)
